Assay results: ChEMBL document CHEMBL1201862, “PubChem BioAssay data set” (2004)
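Following 48 hours of exposure in 96-well plates, responses at five concentrations were used to interpolate endpoints linearly. GI50 = concentration required for 50% inhibition of growth.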 Active and inactive are the calls of the source. No stated cut-off is given here; in the data, active = GI50 up to about 1.1 µM and inactive = higher. Square brackets hold non-standard residues; d marks the D form. Peptide text beside a SMILES is read from it. * marks the point of attachment. X26 = COC1=CC(=O)N(C(=O)[C@@H](O*)C(C)C)[C@H]1Cc1ccccc1; NMeV = CN[C@H](C(=O)O)C(C)C; Hexanoyl = CCCCCC(=O)*

Legend:
Assay in all cases: NCI anticancer screen, dose series, 48 h
IGROV-1 = system: IGROV-1
NCI/ADR-RES = system: NCI/ADR-RES
HCT-116 = system: HCT-116
HL-60 = system: HL-60
A549 = system: A549
HCC 2998 = system: HCC 2998
KM12 = system: KM12
MOLT-4 = system: MOLT-4
UACC-62 = system: UACC-62
SK-MEL-2 = system: SK-MEL-2
CAKI-1 = system: CAKI-1
SK-MEL-28 = system: SK-MEL-28
OVCAR-3 = system: OVCAR-3
UACC-257 = system: UACC-257
HT-29 = system: HT-29
Malme-3M = system: Malme-3M
Hs-578T = system: Hs-578T
NCI-H460 = system: NCI-H460

Structure (SMILES)	GI50 (IGROV-1)	GI50 (NCI/ADR-RES)	GI50 (HCT-116)	GI50 (HL-60)	GI50 (A549)	GI50 (HCC 2998)	GI50 (KM12)	GI50 (MOLT-4)	GI50 (UACC-62)	GI50 (SK-MEL-2)	GI50 (CAKI-1)	GI50 (SK-MEL-28)	GI50 (OVCAR-3)	GI50 (UACC-257)	GI50 (HT-29)	GI50 (Malme-3M)	GI50 (Hs-578T)	GI50 (NCI-H460)
O=[N+]([O-])C(=C1NCCN1)C(Cl)=C(Cl)Cl	> 100 µM (inactive)	> 100 µM (inactive)	> 100 µM (inactive)	62.2 µM (inactive)	> 100 µM (inactive)	> 100 µM (inactive)	> 100 µM (inactive)	49.5 µM (inactive)	> 100 µM (inactive)	> 100 µM (inactive)	> 100 µM (inactive)	> 100 µM (inactive)	> 100 µM (inactive)	> 100 µM (inactive)	> 100 µM (inactive)	> 100 µM (inactive)	> 100 µM (inactive)	> 100 µM (inactive)
COc1cc2c3c(c1)CCCN3CCC2	> 10 µM (inactive)	> 10 µM (inactive)	> 10 µM (inactive)	> 10 µM (inactive)	> 10 µM (inactive)	> 10 µM (inactive)	> 10 µM (inactive)	> 10 µM (inactive)	> 10 µM (inactive)	> 10 µM (inactive)	> 10 µM (inactive)	> 10 µM (inactive)	> 10 µM (inactive)	> 10 µM (inactive)	> 10 µM (inactive)	> 10 µM (inactive)	> 10 µM (inactive)	> 10 µM (inactive)
COc1ccc(-c2csc(Cc3nc4ccccc4c(=O)n3-c3ccc(Cl)cc3)n2)cc1	32.7 µM (inactive)	56.1 µM (inactive)	19.8 µM (inactive)	32.6 µM (inactive)	22.7 µM (inactive)	29.9 µM (inactive)	31 µM (inactive)	20 µM (inactive)	18.5 µM (inactive)	17.8 µM (inactive)	> 100 µM (inactive)	27 µM (inactive)	40.5 µM (inactive)	51.1 µM (inactive)	35.6 µM (inactive)	> 100 µM (inactive)	> 100 µM (inactive)	33.5 µM (inactive)
CCOC(=O)NC(C(=O)OCC)(N1CCN(c2cc3c(cc2F)c(=O)c(C(=O)O)cn3CC)CC1)C(F)(F)F (stereo not drawn)	> 100 µM (inactive)	> 100 µM (inactive)	> 100 µM (inactive)	> 100 µM (inactive)	> 100 µM (inactive)	> 100 µM (inactive)	> 100 µM (inactive)	> 100 µM (inactive)	> 100 µM (inactive)	> 100 µM (inactive)	> 100 µM (inactive)	0.197 µM (active)	> 100 µM (inactive)	> 100 µM (inactive)	> 100 µM (inactive)	> 100 µM (inactive)	> 100 µM (inactive)	> 100 µM (inactive)
Cl/C(=C\C=N\c1ccc(I)cc1)c1ccc2ccccc2c1	17.9 µM (inactive)	14.9 µM (inactive)	16.1 µM (inactive)	12.9 µM (inactive)	33.3 µM (inactive)	0.0322 µM (active)	13.1 µM (inactive)	5.13 µM (inactive)	8.83 µM (inactive)	18.9 µM (inactive)	11.9 µM (inactive)	21.4 µM (inactive)	15 µM (inactive)	15.4 µM (inactive)	40.5 µM (inactive)	20.6 µM (inactive)	28.4 µM (inactive)	24.2 µM (inactive)
C=C1C(=O)OC2C1C(OC(=O)/C(C)=C/C)CC1(C)C(=O)CCC(=C)C21 (stereo not drawn)	11.3 µM (inactive)	6.89 µM (inactive)	4.03 µM (inactive)	1.89 µM (inactive)	19.2 µM (inactive)	9.73 µM (inactive)	16.4 µM (inactive)	2.77 µM (inactive)	8.47 µM (inactive)	11.9 µM (inactive)	4.79 µM (inactive)	3.47 µM (inactive)	6.92 µM (inactive)	11.2 µM (inactive)	4.88 µM (inactive)	5.85 µM (inactive)	27.8 µM (inactive)	13.3 µM (inactive)
COc1ccc2c(C)cc(N/N=C/c3ccc(C)s3)nc2c1	7.82 µM (inactive)	9.82 µM (inactive)	5.92 µM (inactive)	7.05 µM (inactive)	7.91 µM (inactive)	6.11 µM (inactive)	5.18 µM (inactive)	5.94 µM (inactive)	20.1 µM (inactive)	19.1 µM (inactive)	13.5 µM (inactive)	24.7 µM (inactive)	2.94 µM (inactive)	11 µM (inactive)	3.21 µM (inactive)	17.7 µM (inactive)	31.6 µM (inactive)	5.27 µM (inactive)
O=C(/C=C/c1cccc(Br)c1)N1CCN(CCOC(c2ccccc2)c2ccccc2)CC1	81.7 µM (inactive)	35.6 µM (inactive)	29.3 µM (inactive)	17.4 µM (inactive)	43.2 µM (inactive)	46.6 µM (inactive)	32 µM (inactive)	6.53 µM (inactive)	25.9 µM (inactive)	43.6 µM (inactive)	> 100 µM (inactive)	> 100 µM (inactive)	50.5 µM (inactive)	63.5 µM (inactive)	21.6 µM (inactive)	36.4 µM (inactive)	> 100 µM (inactive)	31.8 µM (inactive)
COc1cc(/C=C/c2sc3ccccc3[n+]2C)ccc1N(C)C	7.41 µM (inactive)	> 10 µM (inactive)	3.3 µM (inactive)	6.85 µM (inactive)	5.98 µM (inactive)	21.8 µM (inactive)	3.62 µM (inactive)	4.55 µM (inactive)	5.26 µM (inactive)	2.32 µM (inactive)	35.6 µM (inactive)	8.2 µM (inactive)	2.23 µM (inactive)	2.96 µM (inactive)	17.9 µM (inactive)	2.49 µM (inactive)	41.3 µM (inactive)	6.11 µM (inactive)
O=C1C=CC(=O)c2c1ccc1c3ccccc3n(CCCCCCCCn3c4ccccc4c4ccc5c(c43)C(=O)C=CC5=O)c21	> 100 µM (inactive)	> 100 µM (inactive)	> 100 µM (inactive)	> 100 µM (inactive)	> 100 µM (inactive)	> 100 µM (inactive)	> 100 µM (inactive)	85.7 µM (inactive)	> 100 µM (inactive)	> 100 µM (inactive)	> 100 µM (inactive)	> 100 µM (inactive)	> 100 µM (inactive)	> 100 µM (inactive)	> 100 µM (inactive)	> 100 µM (inactive)	30.8 µM (inactive)	> 100 µM (inactive)
CC(C)c1cc2c(cc1S(=O)(=O)O)[C@@]1(C)CCC[C@@](C)(C(=O)O)C1CC2 (stereo partly drawn)	> 100 µM (inactive)	> 100 µM (inactive)	> 100 µM (inactive)	> 100 µM (inactive)	> 100 µM (inactive)	> 100 µM (inactive)	> 100 µM (inactive)	> 100 µM (inactive)	> 100 µM (inactive)	> 100 µM (inactive)	> 100 µM (inactive)	> 100 µM (inactive)	> 100 µM (inactive)	> 100 µM (inactive)	> 100 µM (inactive)	> 100 µM (inactive)	> 100 µM (inactive)	> 100 µM (inactive)
CC(N)/C(N)=N/O (stereo not drawn)	> 100 µM (inactive)	> 100 µM (inactive)	> 100 µM (inactive)	> 100 µM (inactive)	> 100 µM (inactive)	> 100 µM (inactive)	> 100 µM (inactive)		> 100 µM (inactive)	> 100 µM (inactive)	> 100 µM (inactive)	> 100 µM (inactive)	> 100 µM (inactive)	> 100 µM (inactive)	> 100 µM (inactive)	> 100 µM (inactive)	> 100 µM (inactive)	> 100 µM (inactive)
C=CN1CCN(c2ccccc2)P1(=O)Oc1ccccc1 (stereo not drawn)	53.7 µM (inactive)	55.2 µM (inactive)	48 µM (inactive)	> 100 µM (inactive)	> 100 µM (inactive)	> 100 µM (inactive)	> 100 µM (inactive)	> 100 µM (inactive)	53.1 µM (inactive)	54.6 µM (inactive)	> 100 µM (inactive)	> 100 µM (inactive)	> 100 µM (inactive)	> 100 µM (inactive)	92.9 µM (inactive)	> 100 µM (inactive)	33.7 µM (inactive)	> 100 µM (inactive)
CC(=O)OCC1OC(OC2CC3C(C)(C)C(O)CC[C@]3(C)C3CCC45CC4(CCC5[C@@H](C)CC(O)C(O)C(C)(C)O)[C@]23C)C(O)C(O)C1O (stereo partly drawn)	> 10 µM (inactive)	> 10 µM (inactive)	> 10 µM (inactive)	> 10 µM (inactive)	> 10 µM (inactive)	> 10 µM (inactive)	> 10 µM (inactive)	> 10 µM (inactive)	> 10 µM (inactive)	> 10 µM (inactive)	> 10 µM (inactive)	> 10 µM (inactive)	> 10 µM (inactive)	> 10 µM (inactive)	> 10 µM (inactive)	> 10 µM (inactive)	> 10 µM (inactive)	> 10 µM (inactive)
CCCCCC(=O)N[C@H](C(=O)N[C@H](C(=O)N(C)[C@H](C(=O)N1CCC[C@H]1C(=O)N1CCC[C@H]1C(=O)O[C@H](C(=O)N1C(=O)C=C(OC)[C@@H]1Cc1ccccc1)C(C)C)C(C)C)C(C)C)C(C)C (Hexanoyl-VV[NMeV]PP-X26)	> 100 µM (inactive)	> 100 µM (inactive)	48.2 µM (inactive)	> 100 µM (inactive)		> 100 µM (inactive)	> 100 µM (inactive)	63 µM (inactive)	82.6 µM (inactive)	36.3 µM (inactive)	> 100 µM (inactive)	> 100 µM (inactive)	> 100 µM (inactive)	87.7 µM (inactive)	> 100 µM (inactive)	> 100 µM (inactive)	68.2 µM (inactive)	> 100 µM (inactive)
